Measured values as given in patent publication US6576600B1, “Detergent” (Tokuyama Corporation, priority 1999, dated 2003).

Assay: Solubility / compatibility of the organic solvents in water at 60° C.
Format: physicochemical
Description: The above component (A) in the present invention is a polar organic solvent having low compatibility with water. The expression “low compatibility with water” means that only a small amount of the component dissolves in water, the solubility in water at 60° C., that is, the proportion of a portion soluble in water is preferably 50 vol % or less, more preferably 30 vol % or less. The expression “polar organic solvent” means an organic solvent having a relative dielectric constant of preferably 8 or more, more preferably 10 or more.
The organic solvents used in the examples and comparative examples are as follows.

Row | Compound | solubility in water at 60° C. | compatibility with water at 60° C.
1 | CCCCOCC(C)O (centres unmarked) [PB, propylene glycol monobutyl ether] | 6 vol % | 
2 | CCCOC(C)COC(C)CO (centres unmarked) [DPP, dipropylene glycol monopropyl ether] | 10 vol % | 
3 | CCOCC(C)OCC(C)OCC (centres unmarked) [DPDE, dipropylene glycol diethyl ether] | 5 vol % | 
4 | CCCCCCCCN1CCCC1=O [NOP, N-octylpyrrolidone] | 13 vol % | 
5 | CN1CCN(C)C1=O [DMI, 1,3-dimethyl-2-imidazolidinone] |  | compatible with water at 60 °C in any ratio
6 | CCCN1CCN(CCC)C1=O [DPI, 1,3-dipropyl-2-imidazolidinone] | 12 vol % | 
7 | CCN1CCN(C)C1=O [DEI, 1-ethyl-3-methyl-2-imidazolidinone] |  | compatible with water at 60 °C in any ratio
8 | COC(C)COC(C)CO (centres unmarked) [DPM, dipropylene glycol monomethyl ether, reference compound] |  | compatible with water at 60 °C in any ratio
